As usually defined, the Ki is the dissociation constant of the complex between target and ligand, obtained from inhibition or displacement. Low values mean higher affinity, high ones lower affinity. Broadly, the EC50 is the concentration giving half of the maximal effect. Low values mean higher potency in that assay, high ones lower potency in that assay. The term Emax denotes the greatest response seen or fitted, relative to the assay's reference.

T1 sequence (P33535 whole entry): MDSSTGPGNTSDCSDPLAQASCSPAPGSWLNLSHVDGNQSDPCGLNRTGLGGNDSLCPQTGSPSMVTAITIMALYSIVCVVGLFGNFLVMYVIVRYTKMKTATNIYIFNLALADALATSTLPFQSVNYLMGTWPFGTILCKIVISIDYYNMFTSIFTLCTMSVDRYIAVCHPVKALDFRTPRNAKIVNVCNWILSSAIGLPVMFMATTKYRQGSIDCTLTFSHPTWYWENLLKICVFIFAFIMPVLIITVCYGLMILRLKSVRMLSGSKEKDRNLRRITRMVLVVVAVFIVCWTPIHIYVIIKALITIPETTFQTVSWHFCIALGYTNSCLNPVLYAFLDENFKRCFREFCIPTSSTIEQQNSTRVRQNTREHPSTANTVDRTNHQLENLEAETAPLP
T2 sequence (P33533 whole entry): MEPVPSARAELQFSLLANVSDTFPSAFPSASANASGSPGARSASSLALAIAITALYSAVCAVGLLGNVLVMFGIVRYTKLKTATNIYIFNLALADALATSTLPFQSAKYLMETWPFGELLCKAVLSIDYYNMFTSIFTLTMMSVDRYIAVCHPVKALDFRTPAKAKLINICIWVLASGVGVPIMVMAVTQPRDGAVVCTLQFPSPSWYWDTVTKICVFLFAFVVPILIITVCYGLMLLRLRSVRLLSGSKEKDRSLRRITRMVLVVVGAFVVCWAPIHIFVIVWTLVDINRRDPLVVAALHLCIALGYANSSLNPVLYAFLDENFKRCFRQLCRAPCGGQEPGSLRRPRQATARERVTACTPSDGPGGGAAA

The first assay has as its target T1, rat μ (C6-MOR) opioid receptor (Rattus norvegicus, UniProt P33535).
T1 construct: expressed in transfected cells
The experiment in a line: Radioligand binding assay, [3H]diprenorphine displacement, MOR. Particulars: displacement of 0.2 nM [3H]diprenorphine, C6-MOR membranes; mean ± standard error. How it is done: (§1) In Vitro Pharmacology-Cell Lines and Membrane Preparations. All tissue culture reagents were purchased from Gibco Life Sciences (Grand Island, N.Y., U.S.). C6-rat glioma cells stably transfected with a rat μ (C6-MOR) or rat δ (C6-DOR) opioid receptor20 and Chinese hamster ovary (CHO) cells stably expressing a human K (CHO-KOR) opioid receptor21 were used for all in vitro assays. Cells were grown to confluence at 37° C. in 5% CO2 in Dulbecco's modified Eagle medium containing 10% fetal bovine serum and 5% penicillin/streptomycin. Membranes were prepared by washing confluent cells three times with ice cold phosphate buffered saline (0.9% NaCl, 0.61 mM Na2HPO4, 0.38 mM KH2PO4, pH 7.4). Cells were detached from the plates by incubation in warm harvesting buffer (20 mM HEPES, 150 mM NaCl, 0.68 mM EDTA, pH 7.4) and pelleted by centrifugation at 200 g for 3 min. The cell pellet was suspended in ice-cold 50 mM Tris-HCl buffer, pH 7.4, and homogenized with a Tissue Tearor (Biospec Products, Inc., Bartlesville, Okla., U.S.) for 20 s at setting 4. The homogenate was centrifuged at 20 000 g for 20 min at 4° C., and the pellet was rehomogenized in 50 mM Tris-HCl with a Tissue Tearor for 10 s at setting 2, followed by recentrifugation. The final pellet was resuspended in 50 mM Tris-HCl and frozen in aliquots at […]. Protein concentration was determined via Bradford assay using bovine serum albumin as the standard.
(§2) Radioligand Binding Assays. Radioactive compounds were purchased from Perkin-Elmer (Waltham, Mass., U.S.). Opioid ligand binding assays were performed using competitive displacement of 0.2 nM [3H]diprenorphine (250 μCi, 1.85 TBq/mmol) by the test compound from membrane preparations containing opioid receptors. The assay mixture, containing membrane suspension (20 μg protein/tube) in 50 mM Tris-HCl buffer (pH 7.4), [3H]diprenorphine, and various concentrations of test peptide, was incubated at room temperature for 1 h to allow binding to reach equilibrium. The samples were rapidly filtered through Whatman GF/C filters using a Brandel harvester (Brandel, Gaithersburg, Md., U.S.) and washed three times with 50 mM Tris-HCl buffer. The radioactivity retained on dried filters was determined by liquid scintillation counting after saturation with EcoLume liquid scintillation cocktail in a Wallac 1450 MicroBeta (Perkin-Elmer, Waltham, Mass., U.S.). Nonspecific binding was determined using 10 μM naloxone. Inhibitory constant (Ki) values were calculated using nonlinear regression analysis to fit a logistic equation to the competition data using GraphPad Prism, version 5.01, for Windows (GraphPad Software Inc., La Jolla, Calif.). The results presented are the mean±standard error from at least three separate assays performed in duplicate.
Consider `Cc1cc(O)cc(C)c1C[C@H](N)C(=O)N[C@@H]1CCNc2ccc(CN3CCc4cccc(C(F)(F)F)c4C3)cc21` [Compound 1061], for which the affinity, expressed as Ki, was 0.17 ± 0.03 nM.

Regarding `CC(=O)N1CC[C@@H](NC(=O)[C@@H](N)Cc2c(C)cc(O)cc2C)c2cc(CN3CCc4ccc(F)cc4C3)ccc21` [Compound 1062], the Ki was 0.05 ± 0.01 nM.

`Cc1cc(C(N)=O)cc(C)c1C[C@H](N)C(=O)N[C@@H]1CCNc2ccc(Cc3ccccc3)cc21` [Compound 1048] gave a Ki of 0.6 ± 0.12 nM.

In turn, `Cc1cc(O)cc(C)c1C[C@H](N)C(=O)NC1CCc2ccc(Cc3ccccc3)cc21` (some centres unmarked) [Compound 1114] yielded a Ki of 0.55 ± 0.09 nM.

The next assay has as its target T2, rat δ (C6-DOR) opioid receptor (Rattus norvegicus, UniProt P33533).
T2 construct: expressed in transfected cells
The experiment in a line: Radioligand binding assay, [3H]diprenorphine displacement, DOR. Particulars: displacement of 0.2 nM [3H]diprenorphine, C6-DOR membranes; mean ± standard error. How it is done: as §1, §2
`Cc1cc(O)cc(C)c1C[C@H](N)C(=O)N[C@@H]1CCNc2ccc(CN3CCc4cccc(C(F)(F)F)c4C3)cc21` [Compound 1061] yielded a Ki of 13.6 ± 1.27 nM.

On to `CC(=O)N1CC[C@@H](NC(=O)[C@@H](N)Cc2c(C)cc(O)cc2C)c2cc(CN3CCc4ccc(F)cc4C3)ccc21` [Compound 1062], for which the Ki is 0.77 ± 0.23 nM.

`Cc1cc(C(N)=O)cc(C)c1C[C@H](N)C(=O)N[C@@H]1CCNc2ccc(Cc3ccccc3)cc21` [Compound 1048] came in with a Ki of 32.3 ± 7.57 nM.

`Cc1cc(O)cc(C)c1C[C@H](N)C(=O)NC1CCc2ccc(Cc3ccccc3)cc21` (some centres unmarked) [Compound 1114]: the affinity, expressed as Ki, was 29.9 ± 10.1 nM.

The target in another assay is T3, human κ (CHO-KOR) opioid receptor (Homo sapiens, UniProt P41145).
T3 construct: expressed in transfected cells
T3 sequence (P41145 whole entry): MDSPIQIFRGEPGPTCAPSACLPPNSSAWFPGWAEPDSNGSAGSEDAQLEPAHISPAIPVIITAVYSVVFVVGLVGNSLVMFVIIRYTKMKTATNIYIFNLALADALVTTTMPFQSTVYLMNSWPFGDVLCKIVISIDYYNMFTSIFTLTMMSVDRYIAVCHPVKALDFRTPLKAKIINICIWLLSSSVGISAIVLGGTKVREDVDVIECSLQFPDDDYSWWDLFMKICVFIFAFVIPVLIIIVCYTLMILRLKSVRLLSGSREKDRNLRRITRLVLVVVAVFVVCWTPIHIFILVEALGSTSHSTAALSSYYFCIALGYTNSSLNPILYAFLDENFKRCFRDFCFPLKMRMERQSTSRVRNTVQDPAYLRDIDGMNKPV
The experiment in a line: Radioligand binding assay, [3H]diprenorphine displacement, KOR. Particulars: displacement of 0.2 nM [3H]diprenorphine, CHO-KOR membranes; mean ± standard error. Here is the method:
as §1, §2
`Cc1cc(O)cc(C)c1C[C@H](N)C(=O)N[C@@H]1CCNc2ccc(CN3CCc4cccc(C(F)(F)F)c4C3)cc21` [Compound 1061] came in with an inhibitory constant (Ki) of 48.5 ± 17.5 nM.

`CC(=O)N1CC[C@@H](NC(=O)[C@@H](N)Cc2c(C)cc(O)cc2C)c2cc(CN3CCc4ccc(F)cc4C3)ccc21` [Compound 1062]: the Ki worked out at 16.2 ± 7.94 nM.

In the case of `Cc1cc(C(N)=O)cc(C)c1C[C@H](N)C(=O)N[C@@H]1CCNc2ccc(Cc3ccccc3)cc21` [Compound 1048], the Ki was 170 ± 49.1 nM.

Consider `Cc1cc(O)cc(C)c1C[C@H](N)C(=O)NC1CCc2ccc(Cc3ccccc3)cc21` (some centres unmarked) [Compound 1114], for which the Ki was 143 ± 45.4 nM.

A further assay concerns the target T1, rat μ (C6-MOR) opioid receptor. Kind of assay: Stimulation of [35S]GTPγS binding, MOR. It counts as biochemical. Particulars: [35S]GTPγS binding, C6-MOR membranes; mean ± standard error. How it is done: as §1
(§3) Stimulation of [^35S]GTPyS Binding. Agonist stimulation of [35S]guanosine 5′-O-[γ-thio]triphosphate ([^35S]GTPγS, 1250 Ci, 46.2 TBq/mmol) binding was measured as described previously Briefly, membranes (10-20 μg of protein/tube) were incubated 1 h at room temperature in GTPyS buffer (50 mM Tris-HCl, 100 mM NaCl, 5 mM MgCl2, pH 7.4) containing 0.1 nM [^35S]GTPγS, 30 μM guanosine diphosphate (GDP), and varying concentrations of test peptides. Peptide stimulation of [^35S]GTPyS was compared with 10 μM standard compounds [D-Ala^2,N-MePhe^4,Gly-ol]encephalin (DAMGO) at MOR, D-Pen^2,5-enkephalin (DPDPE) at DOR, or […] at KOR. The reaction was terminated by rapidly filtering through GF/C filters and washing 10 times with GTPyS buffer, and retained radioactivity was measured as described above. The results presented are the mean±standard error from at least three separate assays performed in duplicate; maximal stimulation was determined using nonlinear regression analysis with GraphPad Prism (GraphPad Software Inc., La Jolla, Calif.).
On the technique in general: Binding of GTPγS marks nucleotide exchange on a G protein.
For `Cc1cc(O)cc(C)c1C[C@H](N)C(=O)N[C@@H]1CCNc2ccc(CN3CCc4cccc(C(F)(F)F)c4C3)cc21` [Compound 1061], the half-maximal effective concentration (EC50) came out at 8.88 ± 2.71 nM.

As for `CC(=O)N1CC[C@@H](NC(=O)[C@@H](N)Cc2c(C)cc(O)cc2C)c2cc(CN3CCc4ccc(F)cc4C3)ccc21` [Compound 1062], a half-maximal effect (EC50) was put at 23.7 ± 26.7 nM.

Regarding `Cc1cc(C(N)=O)cc(C)c1C[C@H](N)C(=O)N[C@@H]1CCNc2ccc(Cc3ccccc3)cc21` [Compound 1048], a half-maximal effect (EC50) was put at 9.2 ± 4.58 nM.

Compound `Cc1cc(O)cc(C)c1C[C@H](N)C(=O)NC1CCc2ccc(Cc3ccccc3)cc21` (some centres unmarked) [Compound 1114] registered an EC50 of 18.3 ± 8.14 nM.

The same assay, now with this note: [35S]GTPγS maximal stimulation compared with 10 μM standard DAMGO.
In turn, `Cc1cc(O)cc(C)c1C[C@H](N)C(=O)N[C@@H]1CCNc2ccc(CN3CCc4cccc(C(F)(F)F)c4C3)cc21` [Compound 1061] registered an Emax of 37.8 ± 2.55%.

In turn, `CC(=O)N1CC[C@@H](NC(=O)[C@@H](N)Cc2c(C)cc(O)cc2C)c2cc(CN3CCc4ccc(F)cc4C3)ccc21` [Compound 1062] gave an Emax of 99.6 ± 1.92%.

`Cc1cc(C(N)=O)cc(C)c1C[C@H](N)C(=O)N[C@@H]1CCNc2ccc(Cc3ccccc3)cc21` [Compound 1048] came in with an Emax of 97.9 ± 4.71%.

For `Cc1cc(O)cc(C)c1C[C@H](N)C(=O)NC1CCc2ccc(Cc3ccccc3)cc21` (some centres unmarked) [Compound 1114], the maximal effect (Emax) was 42.6 ± 8.65%.

A further assay addresses T2, rat δ (C6-DOR) opioid receptor. The experiment in a line: Stimulation of [35S]GTPγS binding, DOR. Particulars: [35S]GTPγS binding, C6-DOR membranes; mean ± standard error. It counts as biochemical. Here is the method:
as §1, §3
With `Cc1cc(O)cc(C)c1C[C@H](N)C(=O)N[C@@H]1CCNc2ccc(CN3CCc4cccc(C(F)(F)F)c4C3)cc21` [Compound 1061], the “EC50 (nm) DOR” value was “dns”.

With `CC(=O)N1CC[C@@H](NC(=O)[C@@H](N)Cc2c(C)cc(O)cc2C)c2cc(CN3CCc4ccc(F)cc4C3)ccc21` [Compound 1062], the “EC50 (nm) DOR” value is listed as “dns”.

The compound `Cc1cc(C(N)=O)cc(C)c1C[C@H](N)C(=O)N[C@@H]1CCNc2ccc(Cc3ccccc3)cc21` [Compound 1048] displayed an EC50 of 1590 ± 738 nM.

The assay is the same for the next values; noted with them: [35S]GTPγS maximal stimulation compared with 10 μM standard DPDPE.
In the case of `Cc1cc(O)cc(C)c1C[C@H](N)C(=O)N[C@@H]1CCNc2ccc(CN3CCc4cccc(C(F)(F)F)c4C3)cc21` [Compound 1061], the “% stimulation DOR” value is given as “dns”.

Take `CC(=O)N1CC[C@@H](NC(=O)[C@@H](N)Cc2c(C)cc(O)cc2C)c2cc(CN3CCc4ccc(F)cc4C3)ccc21` [Compound 1062]: the “% stimulation DOR” value is “dns”.

`Cc1cc(C(N)=O)cc(C)c1C[C@H](N)C(=O)N[C@@H]1CCNc2ccc(Cc3ccccc3)cc21` [Compound 1048] showed an Emax of 24.5 ± 3.25%.

On to `Cc1cc(O)cc(C)c1C[C@H](N)C(=O)NC1CCc2ccc(Cc3ccccc3)cc21` (some centres unmarked) [Compound 1114], for which the Emax amounted to 3.07 ± 1.82%.

In the next assay the target is T3, human κ (CHO-KOR) opioid receptor. Kind of assay: Stimulation of [35S]GTPγS binding, KOR. It counts as biochemical. Particulars: [35S]GTPγS binding, CHO-KOR membranes; mean ± standard error. How it is done:
as §1, §3
Consider `Cc1cc(O)cc(C)c1C[C@H](N)C(=O)N[C@@H]1CCNc2ccc(CN3CCc4cccc(C(F)(F)F)c4C3)cc21` [Compound 1061], for which the “EC50 (nm) KOR” value is listed as “dns”.

On to `CC(=O)N1CC[C@@H](NC(=O)[C@@H](N)Cc2c(C)cc(O)cc2C)c2cc(CN3CCc4ccc(F)cc4C3)ccc21` [Compound 1062], for which the EC50 worked out at 234 ± 70.1 nM.

Take `Cc1cc(C(N)=O)cc(C)c1C[C@H](N)C(=O)N[C@@H]1CCNc2ccc(Cc3ccccc3)cc21` [Compound 1048]: the “EC50 (nm) KOR” value is given as “dns”.

`Cc1cc(O)cc(C)c1C[C@H](N)C(=O)NC1CCc2ccc(Cc3ccccc3)cc21` (some centres unmarked) [Compound 1114] displayed an EC50 of 1600 nM.

Staying with this assay, now noted: [35S]GTPγS maximal stimulation compared with 10 μM standard U-69,593.
As for `Cc1cc(O)cc(C)c1C[C@H](N)C(=O)N[C@@H]1CCNc2ccc(CN3CCc4cccc(C(F)(F)F)c4C3)cc21` [Compound 1061], the “% stimulation KOR” value is given as “dns”.

`CC(=O)N1CC[C@@H](NC(=O)[C@@H](N)Cc2c(C)cc(O)cc2C)c2cc(CN3CCc4ccc(F)cc4C3)ccc21` [Compound 1062] registered an Emax of 34.2 ± 8.24%.

With `Cc1cc(C(N)=O)cc(C)c1C[C@H](N)C(=O)N[C@@H]1CCNc2ccc(Cc3ccccc3)cc21` [Compound 1048], the “% stimulation KOR” value is listed as “dns”.

`Cc1cc(O)cc(C)c1C[C@H](N)C(=O)NC1CCc2ccc(Cc3ccccc3)cc21` (some centres unmarked) [Compound 1114]: the Emax was 3.7 ± 4.06%.
